Laboratory results taken from patent US20220233523A1, “ANTIBIOTIC POTENTIATION FOR NONTUBERCULOUS MYCOBACTERIAL DISEASE” (priority 2019, published 2022).
“And” between values parts separate entries of the source, which are not always exact repeats. Equal values may be shown once. Marks after values point to notes of the source that are not given here.

Tests used:
MAH104 biofilms = format: cell-based, Mycobacterium avium subsp hominissuis 104 (MAH104); conditions: for lower capacity of biofilms to use the substrate compared with planktonic cultures: O.D.590 nm, biofilm vs planktonic; for metabolized by biofilm cultures: Biolog PM1/PM2A plates; for Biofilm (metabolite used): Biolog PM1/PM2A substrates, 7 days at 37° C., end-point assay
Procedure: (§1) Metabolic phenotype study was performed with planktonic and biofilm cultures using the 96-well plates PM1 and PM2A (BIOLOG™, Hayward, Calif.). The assays with planktonic cells and biofilms were made at the same time. Each plate contains carbon substrates and one negative control well, in which the bacteria is tested without any substrate. The tests with planktonic and biofilm cultures were performed at the same time and the culture inoculum have the same number of passages. […] The experiments were made as an end-point assay.
The cultures of biofilms were established for 7 days in regular polystyrene 96 well plates, not in PM Biolog plates, as described above with a minor difference. […] (total of 14 days of biofilm incubated at 37° C.). To obtain spectrophotometric measurements from biofilm cultures (O.D.590 nm), the plate was centrifuged for 20 minutes at 3500 rpm at 20° C., which reduce bacteria interference with the readings, and biofilm supernatant was transferred to a new 96 well plates for O.D.590 nm measurement.
(§2) Experiments were performed three times as an end-point assay. If planktonic and/or biofilm cultures were able to metabolize a specific metabolite substrate, electrons from NADH reduce the Redox dye in an irreversible reaction that generates a purple color in the PM plate wells. The signal (+) and (−) indicates, respectively, whether a purple color was produced or not. Abiotic reductions of the Redox dye were assessed through adding bacteria-free GN/GP-IF-0a fluid in the wells. Negative control corresponds to the wells without any metabolic substrate.

[1] = tested on: MAH (strain 104) in established biofilms; test: Treatment of established MAH biofilms with antibiotics and metabolites (CFU); format: cell-based, Mycobacterium avium subsp hominissuis 104 (MAH104); conditions: for numbers of bacteria in biofilms / CFU/ml at 14 days: established biofilms; for numbers of bacteria in biofilms: antibiotic alone or co-treatment; for CFU/ml at 14 days: clarithromycin 16 μg/ml, amikacin 4 μg/ml, 0.05% propionic or butyric acid, 0.2% glycerol, none 4.2 +/− 0.5 × 10^8
Procedure: To assess the antibiotic tolerance of MAH biofilms to amikacin (4 μg/ml) and clarithromycin (16 μg/ml), biofilms were formed for 14 days as described herein. […] As a negative control, biofilms were incubated only with non-supplemented 7H9 without any antibiotics. […] Subsequently, 100 μl of 0.02% of Triton X-100 (final concentration 0.01%) was added to the established biofilms to mix, dilute and perform CFU analysis with the entire population of biofilms (attached and unattached).
Mycobacteria biofilms were first established and then treated or not treated with antibiotics. In parallel, biofilms were also co-treated with antibiotics and the targeted metabolites.

[2] = tested on: intracellular MAH 104 in THP-1 macrophages; test: Treatment of MAH inside human THP-1 macrophages with antibiotics and metabolites (CFU); format: cell-based, Mycobacterium avium subsp hominissuis 104 (MAH104); conditions: for CFU/ml of macrophage lysate, 2 h: 2 h (baseline); for CFU/ml of macrophage lysate, 4 days: clarithromycin 16 μg/ml, amikacin 4 μg/ml, none 8.2 +/− 0.3 × 10^5
Procedure: Human THP-1 cell line (TIB-202) (American Type Culture Collection, Manassas, Va.) was cultivated in RPMI-1640 medium with 10% of heat-inactivated fetal bovine serum (FBS, GEMINI B10-PRODUCTS, Sacramento, Calif.), at 37° C. with 5% CO2. The THP-1 cells were maintained in 75 cm^2 tissue culture flasks. The differentiation of THP-1 monocytes into macrophages with PMA (phorbol 12-myristate 13-acetate) (SIGMA ALDRICH) and intracellular antibiotic killing assays were performed as previously described (Rojony et al., Clinical proteomics 2019; 16:39). […] As a negative control, differentiated THP-1 cells were incubated without any antibiotics and with no metabolites. THP-1 cells were replenished with new media containing antibiotics, or no antibiotic, every other day. Cells were lysed at 2 h (baseline) and day 4 and subsequently the number of viable bacteria was determined by CFU counting on 7H10 agar plates.

MAH 3388 biofilm = test: Amikacin with short-chain fatty acids on biofilm of lung isolate MAH 3388; format: cell-based; conditions: amikacin concentration: 4 mg/ml; untreated 9.4 +/− 0.2 × 10^7
Procedure: As a negative control, biofilms were incubated only with non-supplemented 7H9 without any antibiotics. […] Subsequently, 100 μl of 0.02% of Triton X-100 (final concentration 0.01%) was added to the established biofilms to mix, dilute and perform CFU analysis with the entire population of biofilms (attached and unattached).
Biofilms were established from an MAH strain isolated from the lungs of a patient (MAH 3388).

MAH 3393 biofilm = test: Amikacin with short-chain fatty acids on biofilm of lung isolate MAH 3393; format: cell-based; conditions: amikacin concentration: 4 mg/ml; untreated 1.0 +/− 0.8 × 10^8
sessile MAH104 cells = test: Growth and biofilm formation of pre-attached (sessile) cells in nutrient-limited media; format: cell-based, Mycobacterium avium subsp hominissuis 104 (MAH104); conditions: 0.05% fatty acids in non-supplemented 7H9, 7 days; blank 0.091±0.007
Procedure: (§3) Assays with biofilms incubated with propionic acid, butyric acid, and glycerol were performed to test whether these metabolites affect the formation of biofilms. All the experiments were made in non-supplemented 7H9. The effect of these metabolites was evaluated during biofilm formation, in pre-established biofilms and in M. avium cells pre-attached to polystyrene. To evaluate the effect of targeted metabolites during biofilm formation, mycobacteria suspensions were prepared and inoculated in 96 wells polystyrene plates, as already described, and biofilms were formed in the presence or not of the short-chain fatty acids at different concentrations (1%, 0.5%, 0.1%, 0.05% and 0.01%). For glycerol, only 0.2% was used. The biofilms were formed in 7H9 media at 37° C. for 7 days. For pre-established biofilms, MAH104 was again inoculated in 96 wells plates and biofilms were formed as described herein. […] It was also evaluated whether these metabolites could promote the growth of MAH104 cells present in biofilms through the measurement of […] every 24 hours. Finally, mycobacteria suspension with low density made in 7H9 broth (containing 1×10^6 bacteria/ml) were seeded in 96 wells polystyrene plates and incubated for 7 days at 37° C. […] The growth of pre-attached bacterial cells was followed every 24 hours through O.D.595 nm. The biofilm formation was evaluated by crystal violet.
Low mycobacterial cells density (10^6/ml) resuspended in non-supplemented 7H9 media were inoculated in 96-well plates and incubated for 7 days at 37° C. to allow the bacteria to attach into polystyrene. The supernatant was discarded to remove planktonic cells and pre-attached bacterium was incubated for 7 days in nutrient-limited media (non-supplemented 7H9). […] The growth of sessile mycobacteria was followed by O.D.595 nm measurement and biofilm formation was determined through crystal violet (O.D.570 nm), since the multiplication of bacteria cells is linked with the formation of biofilms. No growth was observed when sessile MAH104 cells were cultivated in non-supplemented 7H9 broth. […] It is also important to highlight that the O.D.570 nm value for sessile MAH104 forms incubated with non-supplemented 7H9 (O.D.570 nm=0.11±0.039) had no significant difference in comparison with the blank (O.D.570 nm=0.091±0.007) (P=0.37), showing no biofilm formation. […] FIG. 3A-D.

[3] = tested on: M. avium 104 static biofilms; test: Static biofilm formation in the presence of metabolites (crystal violet); format: cell-based, Mycobacterium avium subsp hominissuis 104 (MAH104); conditions: 1% and 0.5%, 7H9, 7 days at 37° C., crystal violet
Procedure: Static biofilms were used in the present study as described previously (Rose S J, Bermudez L E., Infection and Immunity 2014; 82:405-12). Briefly, mycobacteria were taken from 7H10 agar plates and resuspended in deionized water (10^9 of colony forming units/ml; CFU/ml). The bacterial suspension was then washed 3 times with deionized water to remove any remaining of 7H10 media (3500 rpm for 20 minutes at 20° C.). After washing, the MAH104 were resuspended in 7H9 medium without any carbon sources (OADC, glycerol, tween 20 and tween 80) (non-supplemented 7H9) and suspensions were left alone to allow clumped bacteria to settle. The top half of the suspension was transferred to new tube and adjusted to 1×10^8 CFU/ml, using visual turbidity and optical density. Suspensions were inoculated in 96-well polystyrene plates (BD, Franklin Lakes, N.J.) (100 μl for each well [or 10^7 bacteria per well]) and biofilms were formed at 37° C. for 7 days or for 14 days when indicated. […] The raw O.D. at 570 nm values were discounted from O.D. 570 nm average of blank wells (wells with only 7H9 media).
as §3
The next step was to evaluate the capacity of tested substrates to promote the growth of mycobacteria cells that are present in biofilms. […] MAH 104 cells in the presence of non-supplemented 7H9 were used as a negative control. […]

[4] = tested on: planktonic MAH104 cultures; format: cell-based, Mycobacterium avium subsp hominissuis 104 (MAH104); conditions: for Planktonic (metabolite used): Biolog PM1/PM2A plates, 7 days at 37° C., end-point assay
Procedure: as §1
To prepare the inoculum of planktonic cells for PM plates, MAH104 was cultivated in 7H9 medium with 10% OADC and 0.05% of tween20. After the cells reached a mid-logarithmic phase (O.D. at 595 nm=0.3 to 0.6), the cultures were harvested and washed three times with deionized water (centrifugation conditions; 3500 rpm for 20 minutes at 20° C.) and incubated in water for 24 hours at 25° C. as a starvation step. […] A volume of 100 μl of this final bacteria suspension was inoculated into the wells of PM1 and PM2A plates. These plates were incubated for 7 days at 37° C. and after the incubation the O.D. at 590 nm of the plates were measured.
as §2

[5] = cited from earlier work

For `CC(=O)O` [Acetic Acid], the “lower capacity of biofilms to use the substrate compared with planktonic cultures” value (MAH104 biofilms) was 2.55 fold.

For `CC(=O)CC(=O)O` [Acetoacetic acid], the “metabolized by biofilm cultures” value (MAH104 biofilms) was “unable to metabolize”.

With `NCC[C@H](O)C(=O)N[C@@H]1C[C@H](N)[C@@H](O[C@H]2O[C@H](CN)[C@@H](O)[C@H](O)[C@H]2O)[C@H](O)[C@H]1O[C@H]1O[C@H](CO)[C@@H](O)[C@H](N)[C@H]1O` [Amikacin, reference compound] the “numbers of bacteria in biofilms” value [1] was 5.8±0.5×10^7, the “CFU/ml at 14 days” value [1] was 5.8 +/− 0.5 × 10^7*(1) CFU/ml and the “CFU/ml of macrophage lysate, 2 h” value [2] was 4.5 +/− 0.4 × 10^5 CFU/ml. For the same molecule, the “CFU/ml of macrophage lysate, 4 days” value [2] was 4.8±0.5×10^4 CFU/ml and 4.8 +/− 0.5 × 10^4* (1) CFU/ml, the “CFU/mL, MAH 3388” value (MAH 3388 biofilm) was 5.4 +/− 0.9 × 10^7*(1) CFU/mL and the “CFU/mL, MAH 3393” value (MAH 3393 biofilm) was 5.2 +/− 0.6 × 10^7*(1) CFU/mL.

For `CCCCCC(=O)O` [Caproic acid], the “lower capacity of biofilms to use the substrate compared with planktonic cultures” value (MAH104 biofilms) was 4.27 fold, the “O.D.570 nm of sessile MAH104 (crystal violet, biofilm formation)” value (sessile MAH104 cells) was 0.177±0.017 and the “biofilm formation with 1% and 0.5% of fatty acid” value [3] was “significant decrease”. The “killing capacity of clarithromycin” value ([1]; established M. avium 104 biofilms, 72 hours, FIG. 4A-D) was “increase”, the “CFU/ml at 14 days” value [1] was 6.4 +/− 0.2 × 10^6*(1) CFU/ml and the “CFU/ml of macrophage lysate, 2 h” value [2] was 3.1 +/− 0.4 × 10^5 CFU/ml. For the same molecule, the “CFU/ml of macrophage lysate, 4 days” value [2] was 5.3 +/− 0.4 × 10^5* (1) CFU/ml.

With `CC[C@H]1OC(=O)[C@H](C)[C@@H](O[C@H]2C[C@@](C)(OC)[C@@H](O)[C@H](C)O2)[C@H](C)[C@@H](O[C@@H]2O[C@H](C)C[C@H](N(C)C)[C@H]2O)[C@](C)(OC)C[C@@H](C)C(=O)[C@H](C)[C@@H](O)[C@]1(C)O` [Clarithromycin, reference compound] the “numbers of bacteria in biofilms” value [1] was 8.9±0.8×10^7, the “CFU/ml at 14 days” value [1] was 8.9 +/− 0.8 × 10^7*(1) CFU/ml and the “CFU/ml of macrophage lysate, 2 h” value [2] was 4.5 +/− 0.4 × 10^5 CFU/ml. The “CFU/ml of macrophage lysate, 4 days” value [2] was 3.9±0.3×10^4 CFU/ml and 3.9 +/− 0.3 × 10^4* (1) CFU/ml.

For `COC(=O)C(C)=O` [Methyl Pyruvate], the “lower capacity of biofilms to use the substrate compared with planktonic cultures” value (MAH104 biofilms) was 1.8 fold.

For `CC(=O)C(=O)O` [Pyruvic acid], the “lower capacity of biofilms to use the substrate compared with planktonic cultures” value (MAH104 biofilms) was 2.21 fold.

With `O=C(O)CCCCCCCCC(=O)O` [Sebacic acid] the “planktonic O.D.590 nm” value ([4]; Biolog plate, end-point) was 0.210±0.069 and the “Biofilm O.D.590 nm” value (MAH104 biofilms; Biolog plate, end-point) was 0.411±0.059.

In the case of `NC[C@H]1O[C@H](O[C@H]2[C@H](O)[C@@H](O[C@H]3O[C@H](CO)[C@@H](O)[C@H](N)[C@H]3O)[C@H](N)C[C@@H]2N)[C@H](N)C[C@@H]1O` [tobramycin], the “concentration in expectorated sputum (Mean)” value ([5]; 10 minutes after delivery of 300 mg by nebulizer) is listed as 1,237 μg/g of sputum and the “concentration in the lung epithelial fluid (induced sputum)” value ([5]; after 300 mg delivered by nebulizer) is listed as about 128 µg/g.

For `CCC(O)C(=O)O` (stereo not drawn) [α-Hydroxy Butyric acid], the “metabolized by biofilm cultures” value (MAH104 biofilms) was “unable to metabolize”.

With `CCC(=O)C(=O)O` [α-Keto-Butyric acid] the “metabolized by biofilm cultures” value (MAH104 biofilms) was “unable to metabolize”.

For polysorbate 20 [Tween 20], the “Planktonic (metabolite used)” value [4] was “+”, the “Biofilm (metabolite used)” value (MAH104 biofilms) was “+” and the “lower capacity of biofilms to use the substrate compared with planktonic cultures” value (MAH104 biofilms) was 5.4 fold.

With polysorbate 40 [Tween 40] the “Planktonic (metabolite used)” value [4] was “+”, the “Biofilm (metabolite used)” value (MAH104 biofilms) was “+” and the “lower capacity of biofilms to use the substrate compared with planktonic cultures” value (MAH104 biofilms) was 3.8 fold.

With polysorbate 80 [Tween 80] the “Planktonic (metabolite used)” value [4] was “+”, the “Biofilm (metabolite used)” value (MAH104 biofilms) was “+” and the “lower capacity of biofilms to use the substrate compared with planktonic cultures” value (MAH104 biofilms) was 3.45 fold.
